{"source": "patent US20120225135A1", "about": "(priority 2010, published 2012)", "key": {"Pediococcus damnosus": {"system": "Pediococcus damnosus", "experiment": "Microbiological effectiveness at cold temperatures", "assay_type": "cell-based"}, "[1]": {"system": "Cryptosporidium parvum oocysts", "conditions": "in vivo"}, "Fecal Coli": {"system": "Fecal Coli", "experiment": "Disinfection of effluents, fecal coli", "assay_type": "cell-based", "conditions": "for Fecal Coli: ClO2 dose 9.86 mg/L, 30 minutes; for Fecal Coli EC Media per 100 mL: trickling filters effluents"}, "[2]": {"system": "Pichia (Hansenula) anomala (20 percent sporulated)", "experiment": "Microbiological effectiveness at cold temperatures", "assay_type": "cell-based"}, "TPC": {"system": "TPC", "experiment": "Sanitation of fishing holds, TPC", "conditions": "cleaned surface sprayed with 10 ppm ClO2 solution", "from_the_text": "Gross filth removed and washed in detergent\nCleaned surface sprayed with 10 ppm ClO2 solution"}, "[3]": {"system": "Legionella pneumophila, ATCC 33153", "assay_type": "cell-based", "conditions": "pH 5"}, "[4]": {"experiment": "ORP stability test (ORP meter)", "assay_type": "physicochemical", "from_the_text": "Two further samples from the original batch were taken one was packed in an amber coloured PET bottle and the second in a HDPE plastic pouch.\nBoth were placed in an area out of direct sunlight and further the second sample was protected from light by a cardboard box.\nMeasurements of their voltage were taken using an ORP meter in accordance with the testing procedure described in the ORP related articles above.\nSamples were kept in an office environment in Richmond on an exposed bench.\nSampling Equipment EUTECH INSTRUMENTS Waterproof ORPTestr 10"}}, "data": [{"compound": "[O][Cl+][O-]", "note": "[Chlorine Dioxide, chlorine dioxide]", "values": [{"measurement": "Deactivation (%)", "setting": "Pediococcus damnosus", "value": 99.999, "unit": "%"}, {"measurement": "reduction of infectivity for mice", "setting": "[1]", "value": "> 3", "unit": "log 10"}, {"measurement": "Fecal Coli", "setting": "Fecal Coli; effluents, pH initial 4.6, final 4.4", "value": 2, "unit": "MPN per 100 ml"}, {"measurement": "Fecal Coli", "setting": "Fecal Coli; effluents, pH initial 5.5, final 5.6", "value": 2, "unit": "MPN per 100 ml"}, {"measurement": "Fecal Coli", "setting": "Fecal Coli; effluents, pH initial 6.5, final 6.7", "value": 0, "unit": "MPN per 100 ml"}, {"measurement": "Fecal Coli", "setting": "Fecal Coli; effluents, pH initial 7.5, final 7.6", "value": 1.8, "unit": "MPN per 100 ml"}, {"measurement": "Fecal Coli", "setting": "Fecal Coli; effluents, pH initial 8.2, final 8.1", "value": 23, "unit": "MPN per 100 ml"}, {"measurement": "Fecal Coli", "setting": "Fecal Coli; effluents, pH initial 9.1, final 9.2", "value": "2.7 × 10^2 MPN per 100 ml"}, {"measurement": "Fecal Coli", "setting": "Fecal Coli; effluents, pH initial 10.0, final 10.0", "value": "1.3 × 10^4 MPN per 100 ml"}, {"measurement": "kill of fecal coli", "setting": "Fecal Coli; effluents, dose 2.7 mg/L ClO2, 30 min. contact time", "value": 98.9, "unit": "%"}, {"measurement": "fecal coli organisms survived", "setting": "Fecal Coli; effluents, dose 10.8 mg/L ClO2, 30 min. contact time", "value": "two"}, {"measurement": "Fecal Coli EC Media per 100 mL", "setting": "Fecal Coli; ClO2 dose 2.7 mg/L, contact time 5 min", "value": "2.4 × 10^7 per 100 mL"}, {"measurement": "Fecal Coli EC Media per 100 mL", "setting": "Fecal Coli; ClO2 dose 2.7 mg/L, contact time 20 min", "value": "1.3 × 10^7 per 100 mL"}, {"measurement": "Fecal Coli EC Media per 100 mL", "setting": "Fecal Coli; ClO2 dose 2.7 mg/L, contact time 35 min", "value": "3.5 × 10^5 per 100 mL"}, {"measurement": "Fecal Coli EC Media per 100 mL", "setting": "Fecal Coli; ClO2 dose 5.0 mg/L, contact time 15 min", "value": "2.4 × 10^6 per 100 mL"}, {"measurement": "Fecal Coli EC Media per 100 mL", "setting": "Fecal Coli; ClO2 dose 10.8 mg/L, contact time 5 min", "value": "9.2 × 10^2 per 100 mL"}, {"measurement": "Fecal Coli EC Media per 100 mL", "setting": "Fecal Coli; ClO2 dose 10.8 mg/L, contact time 20 min", "value": 14, "unit": "per 100 mL"}, {"measurement": "Fecal Coli EC Media per 100 mL", "setting": "Fecal Coli; ClO2 dose 10.8 mg/L, contact time 35 min", "value": 2, "unit": "per 100 mL"}, {"measurement": "Deactivation (%)", "setting": "[2]", "value": 99.999, "unit": "%"}, {"measurement": "TPC at day zero", "setting": "TPC", "value": "less than 7×10^4"}, {"measurement": "reduction in titer", "setting": "[3]", "value": "> 6", "unit": "log 10"}, {"measurement": "ORP mV", "setting": "[4]; Card Board Wine Cask, April 20 (2005/2006)", "value": 991, "unit": "mV"}, {"measurement": "ORP mV", "setting": "[4]; Card Board Wine Cask, August 3 (2005/2006)", "value": 987, "unit": "mV"}, {"measurement": "ORP mV", "setting": "[4]; Card Board Wine Cask, August 24 (2005/2006)", "value": 1143, "unit": "mV"}, {"measurement": "ORP mV", "setting": "[4]; Card Board Wine Cask, January 18 (2005/2006)", "value": 1021, "unit": "mV"}, {"measurement": "ORP mV", "setting": "[4]; Card Board Wine Cask, July 7 (2005/2006, first entry)", "value": 970, "unit": "mV"}, {"measurement": "ORP mV", "setting": "[4]; Card Board Wine Cask, July 12 (2005/2006, last entry)", "value": 975, "unit": "mV"}, {"measurement": "ORP mV", "setting": "[4]; Card Board Wine Cask, July 18 (2005/2006)", "value": 980, "unit": "mV"}, {"measurement": "ORP mV", "setting": "[4]; Card Board Wine Cask, June 2 (2005/2006)", "value": 970, "unit": "mV"}, {"measurement": "ORP mV", "setting": "[4]; Card Board Wine Cask, March 14 (2005/2006)", "value": 1008, "unit": "mV"}, {"measurement": "ORP mV", "setting": "[4]; Card Board Wine Cask, May 11 (2005/2006)", "value": 970, "unit": "mV"}, {"measurement": "ORP mV", "setting": "[4]; Card Board Wine Cask, November 29 (2005/2006)", "value": 977, "unit": "mV"}, {"measurement": "ORP mV", "setting": "[4]; Card Board Wine Cask, October 21 (2005/2006)", "value": 1036, "unit": "mV"}, {"measurement": "ORP mV", "setting": "[4]; Card Board Wine Cask, September 5 (2005/2006)", "value": 1135, "unit": "mV"}, {"measurement": "ORP mV", "setting": "[4]; Card Board Wine Cask, September 20 (2005/2006)", "value": 1130, "unit": "mV"}, {"measurement": "ORP mV", "setting": "[4]; Sample PET bottle, April 20 2005", "value": 975, "unit": "mV"}, {"measurement": "ORP mV", "setting": "[4]; Sample PET bottle, Aug 8 2005", "value": 926, "unit": "mV"}, {"measurement": "ORP mV", "setting": "[4]; Sample PET bottle, Aug 24 2005", "value": 960, "unit": "mV"}, {"measurement": "ORP mV", "setting": "[4]; Sample PET bottle, July 10 2005", "value": 960, "unit": "mV"}, {"measurement": "ORP mV", "setting": "[4]; Sample PET bottle, July 20 2005", "value": 954, "unit": "mV"}, {"measurement": "ORP mV", "setting": "[4]; Sample PET bottle, June 12 2005", "value": 970, "unit": "mV"}, {"measurement": "ORP mV", "setting": "[4]; Sample PET bottle, June 21 2005", "value": 965, "unit": "mV"}, {"measurement": "ORP mV", "setting": "[4]; Sample PET bottle, May 10 2005", "value": 980, "unit": "mV"}, {"measurement": "ORP mV", "setting": "[4]; Sample PET bottle, May 20 2005", "value": 971, "unit": "mV"}, {"measurement": "ORP mV", "setting": "[4]; Sample PET bottle, Oct 12 2005", "value": 948, "unit": "mV"}, {"measurement": "ORP mV", "setting": "[4]; Sample PET bottle, Oct 28 2005", "value": 941, "unit": "mV"}, {"measurement": "ORP mV", "setting": "[4]; Sample PET bottle, Sept 5 2005", "value": 955, "unit": "mV"}, {"measurement": "ORP mV", "setting": "[4]; Sample PET bottle, Sept 20 2005", "value": 954, "unit": "mV"}]}]}
